Data as given in PubChem BioAssay AID328 (DTP/NCI, 2004).
“And” between values parts separate entries of the source, which are not always exact repeats. Identical values can stand only once. Inconclusive results and toxic doses are left out. The calls were made as follows: active = survival T/C of 150% or more; inactive = T/C below 125% in these data. Non-standard residues stand in square brackets, D forms with d. Residues, ends and D or L forms follow the SMILES beside them. ξ: configuration not given here. *: point of attachment. Boc = CC(C)(C)OC(=O)*; ξP = O=C(O)C1CCCN1

Tested on: BDF1 mice, P388 leukemia ip, median survival T/C
Assay: NCI In Vivo Anticancer Drug Screen. Data for tumor model P388 Leukemia (intraperitoneal) in B6D2F1 (BDF1) mice
Details: endpoint: median survival time, higher = longer survival
Summary of the method: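 Reported as T/C, where T is the survival measurement in dosed animals and C the same measurement in vehicle controls.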

[1] = dose: 100.0 mg/kg/injection, schedule: Q01DX009 (ip), vehicle: saline with Tween-80
[2] = dose: 100.0 mg/kg/injection, schedule: Q04DX003 (ip), vehicle: saline with Tween-80
[3] = dose: 200.0 mg/kg/injection, schedule: Q01DX009 (ip), vehicle: saline with Tween-80
[4] = dose: 200.0 mg/kg/injection, schedule: Q04DX003 (ip), vehicle: saline with Tween-80
[5] = dose: 400.0 mg/kg/injection, schedule: Q01DX009 (ip), vehicle: saline with Tween-80
[6] = dose: 400.0 mg/kg/injection, schedule: Q04DX003 (ip), vehicle: saline with Tween-80
[7] = dose: 50.0 mg/kg/injection, schedule: Q01DX009 (ip), vehicle: saline with Tween-80

Measured: T/C

O=C(/C=C/c1ccccc1)c1ccc2c(c1)OCO2
inactive: dose: 50.0 mg/kg/injection, schedule: Q01DX009 (ip), vehicle: water 99 % of control | dose: 50.0 mg/kg/injection, schedule: Q04DX003 (ip), vehicle: water 99 % of control | dose: 100.0 mg/kg/injection, schedule: Q01DX009 (ip), vehicle: water 108 % of control | dose: 100.0 mg/kg/injection, schedule: Q04DX003 (ip), vehicle: water 94 % of control | dose: 200.0 mg/kg/injection, schedule: Q01DX009 (ip), vehicle: water 101 % of control | dose: 200.0 mg/kg/injection, schedule: Q04DX003 (ip), vehicle: water 103 % of control | dose: 400.0 mg/kg/injection, schedule: Q01DX009 (ip), vehicle: water 108 % of control | dose: 400.0 mg/kg/injection, schedule: Q04DX003 (ip), vehicle: water 94 % of control

C/C=C/CCCCCCCC(=O)OCCCC
inactive: [1] 109 % of control | [2] 110 % of control | [3] 95 % of control | [4] 105 % of control | [5] 113 % of control | [6] 120 % of control

COc1ccc(-c2c(C)c(C(=O)O)nc(-c3ccc4c(O)c(OC)c5c(c4n3)=NC(C)(C)N=5)c2N)c(O)c1OC
inactive: dose: 1.0 mg/kg/injection, schedule: Q01DX010 (ip), vehicle: other 90 % of control | dose: 2.0 mg/kg/injection, schedule: Q01DX010 (ip), vehicle: other 118 % of control | dose: 4.0 mg/kg/injection, schedule: Q01DX010 (ip), vehicle: other 118 % of control | dose: 5.0 mg/kg/injection, schedule: Q01DX010 (ip), vehicle: water 100 % of control | dose: 10.0 mg/kg/injection, schedule: Q01DX010 (ip), vehicle: water 95 % of control

CS(=O)(=O)Nc1ccccc1O
inactive: dose: 50.0 mg/kg/injection, schedule: Q01DX009 (ip), vehicle: other 96 % of control | dose: 100.0 mg/kg/injection, schedule: Q01DX009 (ip), vehicle: other 104 % of control | dose: 200.0 mg/kg/injection, schedule: Q01DX009 (ip), vehicle: other 97 % of control

COC(=O)CC(C)Cc1ccc(OC)c(OC)c1 (centres undefined)
inactive: [1] 104 % of control | [2] 95 % of control | [3] 112 % of control | [4] 109 % of control | [6] 109 % of control

ClC(Cl)(Cl)C1OCOC(C(Cl)(Cl)Cl)OCO1 (centres undefined)
inactive: dose: 100.0 mg/kg/injection, schedule: Q04DX003 (ip), vehicle: Klucel (hydroxypropylcellulose) (HPC) 90 % of control | dose: 200.0 mg/kg/injection, schedule: Q04DX003 (ip), vehicle: Klucel (hydroxypropylcellulose) (HPC) 100 % of control | dose: 400.0 mg/kg/injection, schedule: Q04DX003 (ip), vehicle: Klucel (hydroxypropylcellulose) (HPC) 90 % of control

COc1cc2c3cc1Oc1c(O)c(OC)cc4c1C(Cc1cc5c(c(c1)Oc1ccc(cc1)CC3N(C)CC2)OCO5)N(C)CC4 (centres undefined)
inactive: dose: 1.25 mg/kg/injection, schedule: Q01DX010 (ip), vehicle: saline 90 % of control | dose: 2.5 mg/kg/injection, schedule: Q01DX010 (ip), vehicle: saline 95 % of control | dose: 5.0 mg/kg/injection, schedule: Q01DX010 (ip), vehicle: saline 90 % of control | dose: 10.0 mg/kg/injection, schedule: Q01DX010 (ip), vehicle: saline 86 % of control

COC(=O)CNC(=O)C1CCCN1C(=O)OC(C)(C)C (centres undefined) (Boc-[ξP]-Gly-OMe)
inactive: dose: 100.0 mg/kg/injection, schedule: Q04DX003 (ip), vehicle: saline 100 % of control | dose: 200.0 mg/kg/injection, schedule: Q04DX003 (ip), vehicle: saline 105 % of control | dose: 400.0 mg/kg/injection, schedule: Q04DX003 (ip), vehicle: saline 95 % of control

O=C(NC(Cc1ccccc1)C(=O)Oc1ccc(Cl)cc1)OCc1ccccc1 (centres undefined)
inactive: dose: 100.0 mg/kg/injection, schedule: Q04DX002 (ip), vehicle: saline with Tween-80 101 % of control | dose: 200.0 mg/kg/injection, schedule: Q04DX002 (ip), vehicle: saline with Tween-80 94 % of control | dose: 400.0 mg/kg/injection, schedule: Q04DX002 (ip), vehicle: saline with Tween-80 100 % of control and 91 % of control

N=Cc1c(O)n(-c2ccccc2)c(=O)n(-c2ccccc2)c1=O
inactive: [1] 95 % of control | [3] 95 % of control | [5] 90 % of control

COc1cc2c(cc1OC)C1CC(O)(c3nccc4cc(OC)c(OC)cc34)CCN1CC2 (centres undefined)
inactive: [7] 91 % of control | [1] 91 % of control | [3] 87 % of control

CC/C(=C(/CC)c1ccc(O)cc1)c1ccc(O)cc1
inactive: dose: 12.5 mg/kg/injection, schedule: Q01DX009 (ip), vehicle: carboxymethylcellulose (CMC) 105 % of control | dose: 12.5 mg/kg/injection, schedule: Q01DX010 (ip), vehicle: saline 100 % of control and 110 % of control | dose: 25.0 mg/kg/injection, schedule: Q01DX009 (ip), vehicle: carboxymethylcellulose (CMC) 89 % of control and 93 % of control | dose: 25.0 mg/kg/injection, schedule: Q01DX010 (ip), vehicle: saline 110 % of control | dose: 50.0 mg/kg/injection, schedule: Q01DX008 (ip), vehicle: saline with Tween-80 114 % of control and 120 % of control | dose: 50.0 mg/kg/injection, schedule: Q01DX009 (ip), vehicle: carboxymethylcellulose (CMC) 97 % of control | dose: 50.0 mg/kg/injection, schedule: Q01DX010 (ip), vehicle: saline 100 % of control and 115 % of control | dose: 100.0 mg/kg/injection, schedule: Q01DX008 (ip), vehicle: saline with Tween-80 110 % of control and 116 % of control | dose: 100.0 mg/kg/injection, schedule: Q01DX009 (ip), vehicle: carboxymethylcellulose (CMC) 88 % of control and 90 % of control | dose: 100.0 mg/kg/injection, schedule: Q01DX010 (ip), vehicle: saline 90 % of control and 95 % of control | dose: 200.0 mg/kg/injection, schedule: Q01DX008 (ip), vehicle: saline with Tween-80 111 % of control and 112 % of control | dose: 200.0 mg/kg/injection, schedule: Q01DX009 (ip), vehicle: carboxymethylcellulose (CMC) 114 % of control | dose: 400.0 mg/kg/injection, schedule: Q01DX008 (ip), vehicle: saline with Tween-80 112 % of control

CCCCCCC(=O)/C=C/c1ccc(OC)cc1
inactive: [7] 94 % of control | [1] 103 % of control | [3] 90 % of control

CC12C=CC(=O)C=C1CCC1C3CCC(O)(C(=O)CO)C3(C)CC(O)C12F (centres undefined)
inactive: dose: 25.0 mg/kg/injection, schedule: Q04DX003 (sc), vehicle: steriod suspending solution 113 % of control | dose: 50.0 mg/kg/injection, schedule: Q04DX003 (sc), vehicle: steriod suspending solution 86 % of control | dose: 56.25 mg/kg/injection, schedule: Q01DX009 (sc), vehicle: steriod suspending solution 100 % of control | dose: 100.0 mg/kg/injection, schedule: Q04DX003 (sc), vehicle: steriod suspending solution 86 % of control | dose: 112.5 mg/kg/injection, schedule: Q01DX009 (sc), vehicle: steriod suspending solution 118 % of control | dose: 150.0 mg/kg/injection, schedule: Q04DX003 (sc), vehicle: steriod suspending solution 104 % of control | dose: 225.0 mg/kg/injection, schedule: Q01DX009 (sc), vehicle: steriod suspending solution 104 % of control | dose: 225.0 mg/kg/injection, schedule: Q04DX003 (sc), vehicle: steriod suspending solution 90 % of control

C(=C\c1nc2ccccc2[nH]1)/c1nc2ccccc2[nH]1
inactive: dose: 25.0 mg/kg/injection, schedule: Q01DX009 (ip), vehicle: saline with Tween-80 100 % of control | [7] 100 % of control | [1] 92 % of control | [3] 98 % of control

C[N+](C)(CC(=O)Nc1ccc(Cl)cc1)CC(=O)c1ccc(Cl)c(Cl)c1
inactive: dose: 100.0 mg/kg/injection, schedule: Q01DX001 (ip), vehicle: saline sonified 104 % of control | dose: 200.0 mg/kg/injection, schedule: Q01DX001 (ip), vehicle: saline sonified 95 % of control | dose: 400.0 mg/kg/injection, schedule: Q01DX001 (ip), vehicle: saline sonified 100 % of control

COC(=O)C1(C(=O)OC)N=C(C)OO1
inactive: [7] 121 % of control | [1] 112 % of control
